In patent publication US20150011466A1, “APJ Receptor Compounds” (priority 2012, published 2015):
Where a SMILES comes first, the peptide text is derived from it. Where no end group is shown, it is not given here. [ ]: non-standard residue; d: D form. The star is where a group is joined. Palmitoyl = CCCCCCCCCCCCCCCC(=O)*

Molecular target: T1, APJ receptor (Homo sapiens, UniProt P35414)
T1 construct: expressed in transfected cells; host or cells: Human TRex cells (doxycycline-inducible)
T1 sequence (P35414 1-380): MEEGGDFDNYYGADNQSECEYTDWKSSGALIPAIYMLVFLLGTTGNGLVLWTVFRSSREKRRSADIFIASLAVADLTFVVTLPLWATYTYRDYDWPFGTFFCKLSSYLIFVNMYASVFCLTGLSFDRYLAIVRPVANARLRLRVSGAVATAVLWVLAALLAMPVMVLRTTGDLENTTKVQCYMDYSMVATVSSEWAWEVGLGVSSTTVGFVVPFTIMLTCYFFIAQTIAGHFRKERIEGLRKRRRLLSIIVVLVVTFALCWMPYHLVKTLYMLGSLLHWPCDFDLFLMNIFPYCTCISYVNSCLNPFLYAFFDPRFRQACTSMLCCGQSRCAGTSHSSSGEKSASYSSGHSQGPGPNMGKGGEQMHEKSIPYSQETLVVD
Assay: HTRF cAMP assay, inhibition of NKH477 stimulated cAMP in Human TRex cells expressing APJ upon doxycycline induction (APJ-hTREX)
Format: cell-based
Details: for percent intrinsic activity at 0.3 µM: read-out: % IA (@ 300 nM)
Source text: HTRF (homogeneous time resolved fluorescence) is a technology developed by Cisbio Bioassays based on TR-FRET (time-resolved fluorescence resonance energy transfer). Cisbio Bioassays has developed a wide selection of HTRF-based assays compatible with whole cells, thereby enabling functional assays to run under more physiological conditions. The IP-One assays are competitive immunoassays using cryptate-labeled anti-IP1 monoclonal antibody and d2-labeled IP1. IP1 is a relatively stable downstream metabolite of IP3, and accumulates in cells following Gq receptor activation.
cAMP kits based on a competitive immunoassay using cryptate-labeled anti-cAMP antibody and d2-labeled cAMP were used to assay the effects of APJ compounds of the present invention. […] Cells are treated with […] doxycycline and seeded in all white 96 well plates @ 40 k/well overnight.

Row | Molecule | percent intrinsic activity at 0.3 µM [%] | % IA (@ 300 nM) [%]
1 | CCCCCCCCCCCCCCCC(=O)N[C@H](C(=O)N[C@H](C(=O)N[C@@H](Cc1ccccc1)C(=O)N[C@@H](CCCNC(=N)N)C(=O)N[C@@H](CO)C(=O)N[C@@H](CO)C(=O)N[C@@H](CCC(=O)O)C(=O)N[C@H](CCCCN)C(=O)NCC(=O)N[C@@H](CCCNC(=N)N)C(=O)N[C@@H](CO)C(=O)N[C@@H](C)C(=O)N[C@@H](CC(=O)O)C(=O)N[C@H](C(=O)N[C@@H](Cc1ccccc1)C(=O)N[C@H](C(N)=O)[C@@H](C)CC)[C@@H](C)CC)C(C)C)[C@@H](C)O [Compound 75] (Palmitoyl-TVFRSSE[dK]GRSADIFI-NH2) | 57 | 
2 | CCCCCCCCCCCCCCCC(=O)N[C@H](C(=O)N[C@H](C(=O)N[C@@H](Cc1ccccc1)C(=O)N[C@@H](CCCNC(=N)N)C(=O)N[C@@H](CO)C(=O)N[C@@H](CC(=O)O)C(=O)N[C@@H](CCC(=O)O)C(=O)N[C@H](CCCCN)C(=O)N[C@@H](CCCNC(=N)N)C(=O)N[C@@H](CCCNC(=N)N)C(=O)N[C@@H](CO)C(=O)N[C@@H](C)C(=O)N[C@@H](CC(=O)O)C(=O)N[C@H](C(=O)N[C@@H](Cc1ccccc1)C(=O)N[C@H](C(N)=O)[C@@H](C)CC)[C@@H](C)CC)C(C)C)[C@@H](C)O [Compound 37] (Palmitoyl-TVFRSDE[dK]RRSADIFI-NH2) | 50 | 
3 | TVFRSSEkPRSADIFI (TVFRSSE[dK]PRSADIFI; also: Pal-C(O)- tether, place not given here) [Compound 49] |  | 49
4 | CCCCCCCCCCCCCCCC(=O)N1CCC[C@H]1C(=O)N[C@H](C(=O)N[C@@H](Cc1ccccc1)C(=O)N[C@@H](CCCNC(=N)N)C(=O)N[C@@H](CO)C(=O)N[C@@H](CO)C(=O)N[C@@H](CCC(=O)O)C(=O)N[C@H](CCCCN)C(=O)N[C@@H](CCCNC(=N)N)C(=O)N[C@@H](CCCNC(=N)N)C(=O)N[C@@H](CO)C(=O)N[C@@H](C)C(=O)N[C@@H](CC(=O)O)C(=O)N[C@H](C(=O)N[C@@H](Cc1ccccc1)C(=O)N[C@H](C(N)=O)[C@@H](C)CC)[C@@H](C)CC)C(C)C [Compound 42] (Palmitoyl-PVFRSSE[dK]RRSADIFI-NH2) | 83 | 
5 | CCCCCCCCCCCCCCCC(=O)N[C@H](C(=O)N[C@H](C(=O)N[C@@H](Cc1ccccc1)C(=O)N[C@@H](Cc1c[nH]cn1)C(=O)N[C@@H](CO)C(=O)N[C@@H](CO)C(=O)N[C@@H](CCC(=O)O)C(=O)N[C@H](CCCCN)C(=O)N[C@@H](CCCNC(=N)N)C(=O)N[C@@H](CCCNC(=N)N)C(=O)N[C@@H](CO)C(=O)N[C@@H](C)C(=O)N[C@@H](CC(=O)O)C(=O)N[C@H](C(=O)N[C@@H](Cc1ccccc1)C(=O)N[C@H](C(N)=O)[C@@H](C)CC)[C@@H](C)CC)C(C)C)[C@@H](C)O [Compound 10] (Palmitoyl-TVFHSSE[dK]RRSADIFI-NH2) | 55 | 
6 | CCCCCCCCCCCCCCCC(=O)N[C@H](C(=O)N[C@@H](Cc1ccccc1)C(=O)N[C@@H](Cc1ccccc1)C(=O)N[C@@H](CCCNC(=N)N)C(=O)N[C@@H](CO)C(=O)N[C@@H](CO)C(=O)N[C@@H](CCC(=O)O)C(=O)N[C@H](CCCCN)C(=O)N[C@@H](CCCNC(=N)N)C(=O)N[C@@H](CCCNC(=N)N)C(=O)N[C@@H](CO)C(=O)N[C@@H](C)C(=O)N[C@@H](CC(=O)O)C(=O)N[C@H](C(=O)N[C@@H](Cc1ccccc1)C(=O)N[C@H](C(N)=O)[C@@H](C)CC)[C@@H](C)CC)[C@@H](C)O [Compound 2] (Palmitoyl-TFFRSSE[dK]RRSADIFI-NH2) | 59 | 
7 | CCCCCCCCCCCCCCCC(=O)N[C@H](C(=O)N[C@H](C(=O)N[C@@H](Cc1ccccc1)C(=O)N[C@@H](CCCNC(=N)N)C(=O)N[C@@H](CO)C(=O)N[C@@H](CO)C(=O)N[C@@H](CCC(N)=O)C(=O)N[C@H](CCCCN)C(=O)N[C@@H](CCCNC(=N)N)C(=O)N[C@@H](CCCNC(=N)N)C(=O)N[C@@H](CO)C(=O)N[C@@H](C)C(=O)N[C@@H](CC(=O)O)C(=O)N[C@H](C(=O)N[C@@H](Cc1ccccc1)C(=O)N[C@H](C(N)=O)[C@@H](C)CC)[C@@H](C)CC)C(C)C)[C@@H](C)O [Compound 25] (Palmitoyl-TVFRSSQ[dK]RRSADIFI-NH2) | 45 | 
8 | CCCCCCCCCCCCCCCC(=O)N[C@H](C(=O)N[C@H](C(=O)N[C@@H](Cc1ccccc1)C(=O)N[C@@H](CCCNC(=N)N)C(=O)N[C@@H](CC(=O)O)C(=O)N[C@@H](CO)C(=O)N[C@@H](CCC(=O)O)C(=O)N[C@H](CCCCN)C(=O)N[C@@H](CCCNC(=N)N)C(=O)N[C@@H](CCCNC(=N)N)C(=O)N[C@@H](CO)C(=O)N[C@@H](C)C(=O)N[C@@H](CC(=O)O)C(=O)N[C@H](C(=O)N[C@@H](Cc1ccccc1)C(=O)N[C@H](C(N)=O)[C@@H](C)CC)[C@@H](C)CC)C(C)C)[C@@H](C)O [Compound 36] (Palmitoyl-TVFRDSE[dK]RRSADIFI-NH2) | 49 | 
9 | CCCCCCCCCCCCCCCC(=O)N[C@H](C(=O)N[C@@H](CC(=O)O)C(=O)N[C@@H](Cc1ccccc1)C(=O)N[C@@H](CCCNC(=N)N)C(=O)N[C@@H](CO)C(=O)N[C@@H](CO)C(=O)N[C@@H](CCC(=O)O)C(=O)N[C@H](CCCCN)C(=O)N[C@@H](CCCNC(=N)N)C(=O)N[C@@H](CCCNC(=N)N)C(=O)N[C@@H](CO)C(=O)N[C@@H](C)C(=O)N[C@@H](CC(=O)O)C(=O)N[C@H](C(=O)N[C@@H](Cc1ccccc1)C(=O)N[C@H](C(N)=O)[C@@H](C)CC)[C@@H](C)CC)[C@@H](C)O [Compound 34] (Palmitoyl-TDFRSSE[dK]RRSADIFI-NH2) | 44 | 

More lines, now with the values ahead:

Row | percent intrinsic activity at 0.3 µM [%] | % IA (@ 300 nM) [%] | Molecule
10 | 39 |  | CCCCCCCCCCCCCCCC(=O)N[C@H](C(=O)N1CCC[C@H]1C(=O)N[C@@H](Cc1ccccc1)C(=O)N[C@@H](CCCNC(=N)N)C(=O)N[C@@H](CO)C(=O)N[C@@H](CO)C(=O)N[C@@H](CCC(=O)O)C(=O)N[C@H](CCCCN)C(=O)N[C@@H](CCCNC(=N)N)C(=O)N[C@@H](CCCNC(=N)N)C(=O)N[C@@H](CO)C(=O)N[C@@H](C)C(=O)N[C@@H](CC(=O)O)C(=O)N[C@H](C(=O)N[C@@H](Cc1ccccc1)C(=O)N[C@H](C(N)=O)[C@@H](C)CC)[C@@H](C)CC)[C@@H](C)O [Compound 43] (Palmitoyl-TPFRSSE[dK]RRSADIFI-NH2)
11 |  | 81 | TVFRSSEkRRSADFFI (TVFRSSE[dK]RRSADFFI; also: Pal-C(O)- tether, place not given here) [Compound 5]
12 | 63 |  | CCCCCCCCCCCCCCCC(=O)N[C@H](C(=O)N[C@@H](Cc1c[nH]cn1)C(=O)N[C@@H](Cc1ccccc1)C(=O)N[C@@H](CCCNC(=N)N)C(=O)N[C@@H](CO)C(=O)N[C@@H](CO)C(=O)N[C@@H](CCC(=O)O)C(=O)N[C@H](CCCCN)C(=O)N[C@@H](CCCNC(=N)N)C(=O)N[C@@H](CCCNC(=N)N)C(=O)N[C@@H](CO)C(=O)N[C@@H](C)C(=O)N[C@@H](CC(=O)O)C(=O)N[C@H](C(=O)N[C@@H](Cc1ccccc1)C(=O)N[C@H](C(N)=O)[C@@H](C)CC)[C@@H](C)CC)[C@@H](C)O [Compound 8] (Palmitoyl-THFRSSE[dK]RRSADIFI-NH2)
13 | 61 |  | CCCCCCCCCCCCCCCC(=O)N[C@H](C(=O)N[C@H](C(=O)N[C@@H](Cc1ccccc1)C(=O)N[C@@H](CCCNC(=N)N)C(=O)N[C@@H](CO)C(=O)N[C@@H](CO)C(=O)NCC(=O)N[C@H](CCCCN)C(=O)N[C@@H](CCCNC(=N)N)C(=O)N[C@@H](CCCNC(=N)N)C(=O)N[C@@H](CO)C(=O)N[C@@H](C)C(=O)N[C@@H](CC(=O)O)C(=O)N[C@H](C(=O)N[C@@H](Cc1ccccc1)C(=O)N[C@H](C(N)=O)[C@@H](C)CC)[C@@H](C)CC)C(C)C)[C@@H](C)O [Compound 74] (Palmitoyl-TVFRSSG[dK]RRSADIFI-NH2)
14 | 77 |  | CCCCCCCCCCCCCCCC(=O)N[C@H](C(=O)N[C@H](C(=O)N[C@@H](Cc1ccccc1)C(=O)N[C@@H](CCCNC(=N)N)C(=O)N[C@@H](CO)C(=O)N1CCC[C@H]1C(=O)N[C@@H](CCC(=O)O)C(=O)N[C@H](CCCCN)C(=O)N[C@@H](CCCNC(=N)N)C(=O)N[C@@H](CCCNC(=N)N)C(=O)N[C@@H](CO)C(=O)N[C@@H](C)C(=O)N[C@@H](CC(=O)O)C(=O)N[C@H](C(=O)N[C@@H](Cc1ccccc1)C(=O)N[C@H](C(N)=O)[C@@H](C)CC)[C@@H](C)CC)C(C)C)[C@@H](C)O [Compound 46] (Palmitoyl-TVFRSPE[dK]RRSADIFI-NH2)
15 | 50 |  | CCCCCCCCCCCCCCCC(=O)N[C@@H](Cc1c[nH]cn1)C(=O)N[C@H](C(=O)N[C@@H](Cc1ccccc1)C(=O)N[C@@H](CCCNC(=N)N)C(=O)N[C@@H](CO)C(=O)N[C@@H](CO)C(=O)N[C@@H](CCC(=O)O)C(=O)N[C@H](CCCCN)C(=O)N[C@@H](CCCNC(=N)N)C(=O)N[C@@H](CCCNC(=N)N)C(=O)N[C@@H](CO)C(=O)N[C@@H](C)C(=O)N[C@@H](CC(=O)O)C(=O)N[C@H](C(=O)N[C@@H](Cc1ccccc1)C(=O)N[C@H](C(N)=O)[C@@H](C)CC)[C@@H](C)CC)C(C)C [Compound 7] (Palmitoyl-HVFRSSE[dK]RRSADIFI-NH2)
